According to patent US5130302A, “Boronated nucleoside, nucleotide and oligonucleotide compounds, compositions and methods for using same” (Boron Bilogicals, Inc., priority 1989, dated 1992):
In brackets after ≈: the same amount, converted by molar mass. Like-named read-outs stand apart in the source and are kept apart here.

How the values were obtained:
[1] = tested on: Human glioma cell EH 118 MG; assay: Cytotoxicity, human glioma cell EH 118 MG; format: cell-based; conditions: read-out: ED50 (cytotoxicity), Glioma
Procedure: 9. Human glioma cell EH 118 MG transformed stain of Rous sarcoma virus, J. Lutton et al., J. Biol. Chem. 254, 11181 (1979) (grown in DMEM-H+10% FCS).
(§1) The cytotoxic screens were conducted according to NIH protocols, see E. Huang et al., J. Pharm. Sci. 61, 108 (1972), with 10^4 cells, growth medium, antibiotics and drugs from 0.5 to 100 μg/ml final concentration. For the L1210, Hela-S, amd Tmolt, (i.e. the suspended cells), the incubations were conducted in sterile test tubes in a final volume of 1 ml for 72 hr at 37° C. in a CO2 incubator. The cells on the third day were still in log growth phase. The number of cells/ml are determined using trypan blue exclusion and a hemocytometer. See, e.g., R. Geran, supra. For solid tumors there is plated out in wells 1×10^4 cells with 1 ml of medium+antibiotics and the other components of growth. When the controls have converged (≈95%) then the density of the cells is estimated and the ED50 values calculated.

[2] = tested on: L1210 lymphoid leukemia cells; assay: Cytotoxicity, L1210 lymphoid leukemia cells; format: cell-based; conditions: Mus musculus, read-out: ED50 (cytotoxicity), L1210
Procedure: (§2) More specifically, the cytotoxic activity of the boron adducts of the present invention was tested on the following neoplastic cell lines:
1. L1210 lymphoid leukemia cells, R. Geran et al., Cancer Chemotherapy Reports 3, 7 (1972).(grown in RPMI+15% FBS+antibiotics).
as §1

[3] = tested on: Tmolt acute lymphoblastic T cell leukemia; assay: Cytotoxicity, Tmolt acute lymphoblastic T cell leukemia; format: cell-based; conditions: T-cell, read-out: ED50 (cytotoxicity), Tmolt
Procedure: as §2
2. Tmolt^S acute lymphoblastic T cell leukemia, S. Schreiber and N. Ikemoto, Tett. Lett 29, 3211 (1988) (grown in RPMI - 1640+10% FBS).
as §1

Hela-S = assay: Cytotoxicity, Hela-S cervical carcinoma suspended; format: cell-based; conditions: Homo sapiens, read-out: ED50 (cytotoxicity), Hela-S
Procedure: 7. Hela-S, ATCC-CCL 2.2, cervical carcinoma suspended, S. Schreiber and N. Ikemoto, supra; T. Puck et al., J. Exp. Med. 103. 273 (1956) (grown in Joklik+5% FBS, Ham's F12 +5% FBS).
as §1

P388 = assay: Cytotoxicity, P388; format: cell-based
Procedure: as §1

[4] = tested on: KB epidermoid oral nesopharnyx; assay: Cytotoxicity, KB epidermoid oral nasopharynx; format: cell-based; conditions: Homo sapiens, read-out: ED50 (cytotoxicity), KB
Procedure: 6. KB epidermoid oral nesopharnyx. R. Geran, supra: H. Eagle, Proc. Soc. Expt.
Biol. 89, 362 (1955)(grown in EMEM +5% calf serum).
as §1

[5] = tested on: Lung bronchogenic MB-9812; assay: Cytotoxicity, lung bronchogenic MB-9812; format: cell-based; conditions: read-out: ED50 (cytotoxicity), Lung Bronchogenic
Procedure: 4. Lung bronchogenic MB-9812, S. Aronson et al., Expt. Cell Res. 61, 1 (1970) (grown in EMEM+10% FBS+NEAA).
as §1

[6] = tested on: SW480 human colorectal carcinoma; assay: Cytotoxicity, colon adenocarcinoma SW480 human colorectal carcinoma; format: cell-based
Procedure: as §2
3. Colon adenocarcinoma SW480 human colorectal carcinoma. A. Leibovitz et al., Cancer Res. 36, 4562 (1976) (grown in L15+10% FBS).
as §1

Human Osteosarcoma TE418 = assay: Cytotoxicity, human osteosarcoma TE418; format: cell-based
Procedure: 5. Human Osteosarcoma TE418. H. Smith et al., Int. J. Cancer 17, 219 (1976) (grown in DMEM+10% FBS).
as §1

[7] = tested on: Serum triglyceride levels; assay: Antihyperlipidemic activity, serum triglyceride; format: in vivo, male CF1 mice; conditions: 8 mg/kg/day; intraperitoneal, bled on day 16; mice
Procedure: (§3) Compounds to be tested were suspended in 1% aqueous carboxymethylcellulose,homogenized and administered to male CF1 mice (25 g) intraperitoneally for 16d. On days 9 and 16, blood was obtained by tail vein bleeding, and the serum was separated by centrifugation for three minutes. The serum cholesterol levels were determined by a modification of the Liebermann--Burchard reaction in accordance with known techniques. See A. Ness, et al., Clin. Chim. Acta 10, 229 (1964). Serum triglyceride levels were determined with a commercial kit, the Fisher Hycel Triglyceride Test Kit, for a different group of animals bled on day 16.

serum cholesterol levels = assay: Antihyperlipidemic activity, serum cholesterol; format: in vivo, male CF1 mice; conditions: 8 mg/kg/day; intraperitoneal for 16d; mice
Procedure: as §3

inflammatory response = assay: Anti-inflammatory activity, carrageenan-injected hind foot; format: in vivo, CF1 male mice; conditions: mice; for Antiinflammatory Activity, % inhibition: 8 mg/kg/day, intraperitoneal, 3 hours and 30 minutes prior to carrageenan
Procedure: CF1 male mice (~25 g) were administered test drugs at 5-40 mg/kg in 0.05% Tween 80--H2 O intraperitoneally 3 hours prior to and 30 minutes prior to the injection of 0.2 ml of 1% carrageenan in 0.9% saline into the plantar surface of the right hind foot. Saline was injected into the left hind foot, which serves as a base line. After 3 hours, both feet were excised at the tibiotarsal (ankle) joint according to standard procedures. See C. Winter et al., Proc. Soc. Expt. Biol Med. 544, 111 (1962); A. Roszkawski et al., J. Pharm. Exp. Ther. 179, 114 (1971). Control mice afforded a 78±3 mg increase in paw weight.

[8] = Stability in aqueous medium by HPLC; format: physicochemical; conditions: for remaining at 168 h: period of 168 h, read-out: stable in aqueous medium
Procedure: By HPLC, compounds 3a, 3b, and 3d in aqueous medium (0.01 M TEAAc) are >94% stable over a period of 168 h. […], however, is >50% decomposed during this period.

[9] = Homo sapiens, SW480, read-out: ED50 (cytotoxicity), Adeno Carcinoma SW480
[10] = Mus musculus, P388; read-out: ED50 (cytotoxicity), P388

| remaining at 168 h ([8]; 0.01 M TEAAc, HPLC) | Compound | IC50 [1] | IC50 ([2]; L1210, 72 h) | IC50 ([3]; 72 h) | IC50 (Hela-S; HeLa, 72 h) | IC50 [4] | IC50 [5] | IC50 [6, 9] | IC50 ([2]; L1210, 72 hr at 37° C.) | Hypolipidemic: Triglyceride Inhibition, % inhibition [7] | Hypolipidemic: Cholesterol Inhibition, % inhibition (serum cholesterol levels) | Antiinflammatory Activity, % inhibition (inflammatory response) | IC50 (P388; [10]) | other results |
| --- | --- | --- | --- | --- | --- | --- | --- | --- | --- | --- | --- | --- | --- | --- |
| – | CC(C)[Si](OC[C@H]1O[C@@H](n2c[n+]([BH2-]C#N)c3c(=O)[nH]cnc32)C[C@@H]1O[Si](C(C)C)(C(C)C)C(C)C)(C(C)C)C(C)C [Compound 2b, 3', 5-O-Bis(triisopropylislyl)-2'-deoxyinosine-N7-cyanoborane] | 6.21 µg/mL (≈ 10.3 µM) | 4 µg/mL (≈ 6.63 µM) | 6.49 µg/mL (≈ 10.7 µM) | 3.26 µg/mL (≈ 5.4 µM) | 5.29 µg/mL (≈ 8.76 µM) | 6.2 µg/mL (≈ 10.3 µM) | 2.57 µg/mL (≈ 4.26 µM) | – | – | – | – | – | IC50 (P388; Mus musculus, P388, read-out: ED50 (cytotoxicity), P388): 7.31 µg/mL (≈ 12.1 µM) |
| – | CC(C)[Si](OC[C@H]1O[C@@H](n2ccc(N)[n+]([BH2-]C#N)c2=O)C[C@@H]1O)(C(C)C)C(C)C [Compound 4] | 3.43 µg/mL (≈ 8.12 µM) | 2.92 µg/mL (≈ 6.91 µM) | 2.34 µg/mL (≈ 5.54 µM) | 3.63 µg/mL (≈ 8.59 µM) | 4.07 µg/mL (≈ 9.64 µM) | 5.58 µg/mL (≈ 13.2 µM) | 2.71 µg/mL (≈ 6.42 µM) | – | – | – | – | – | IC50 (Human Osteosarcoma TE418; read-out: ED50 (cytotoxicity), Osteo sarcoma): 6.62 µg/mL (≈ 15.7 µM) |
| > 94% | N#C[BH2-][n+]1cn([C@H]2C[C@H](O)[C@@H](CO)O2)c2nc[nH]c(=O)c21 [Compound 3b, 2'-Deoxyinosine-N^7-cyanoborane] | – | – | – | – | 3.45 µg/mL (≈ 11.9 µM) | – | – | 4 µg/mL (≈ 13.7 µM) | 30% | 19% | 25% | 7.21 µg/mL (≈ 24.8 µM) | IC50 ([1]; Glioma EH 118 MG): 8.49 µg/mL (≈ 29.2 µM); IC50 ([3]; Tmolt, 72 hr at 37° C.): 1.73 µg/mL (≈ 5.94 µM); IC50 (Hela-S; Hela-S, 72 hr at 37° C.): 2.41 µg/mL (≈ 8.28 µM); IC50 (Human Osteosarcoma TE418; Osteosarcoma TE418, read-out: ED50 (cytotoxicity), Osteo sarcoma): 7.28 µg/mL (≈ 25 µM); IC50 ([5]; Lung bronchogenic MB-9812): 4.93 µg/mL (≈ 16.9 µM); degraded at 168 h ([8]; 0.01 M TEAAc, 168 h, HPLC, read-out: decomposed in aqueous medium): > 50%; IC50 ([6]; Homo sapiens, SW480; read-out: ED50 (cytotoxicity), Adeno Carcinoma SW480): 3.86 µg/mL (≈ 13.3 µM) |
| – | CCCCC1C(=O)N(c2ccccc2)N(c2ccccc2)C1=O [phenylbutazone, reference compound] | – | – | – | – | – | – | – | – | – | – | – | – | Antiinflammatory Activity, % inhibition (Standard) (inflammatory response; standard, column head 8 mg/kg/day): 47% |
| > 94% | N#C[BH2-][n+]1cn([C@H]2C[C@H](O)[C@@H](CO)O2)c2nc(N)[nH]c(=O)c21 [Compound 3a, 2'-Deoxyguanosine-N7-cyanoborane] | – | – | – | – | – | – | – | 5.08 µg/mL (≈ 16.6 µM) | 37% | 44% | 22% | 5.87 µg/mL (≈ 19.2 µM) | stability in aqueous medium ([8]; in words, aqueous medium): good stability |
